Reference: patent publication US7173015B2, “Inhibition of Syk kinase expression” (The Trustees of the University of Pennsylvania, priority 2003, dated 2007)
Entries after “also recorded” stand apart in the source; their conditions may differ.

What was measured:
Syk kinase = assay: Western blot densitometry of Syk kinase protein in RBL-2H3 cells transfected with siRNA; assay type: cell-based, rat; conditions: for Syk (densitometry quantification of Syk kinase expression) / Syk Corr (Syk densitometry units corrected for % actin expression in each lane): 48 hours after transfection; for Syk (densitometry quantification of Syk kinase expression): Western blot; for Syk Corr (Syk densitometry units corrected for % actin expression in each lane): normalized to actin; for % Syk Inhibition: compared to transfection control
Method: Rat basophilic cells (RBL-2H3) were grown in EMEM supplemented with 17% FBS, 100 U penicillin, 100 μg/ml streptomycin, and 4 mM glutamine at 37° C. in 5% CO2.
SIRNA was introduced into RBL-2H3 cells and into monocytes by transfection. For the transfections, 5×10^4 RBL-2H3 cells or 1×10^5 monocytes were seeded into each well of a 24-well plate. Twenty-four hours later, the complete medium was replaced with 400 μl fresh medium lacking serum and antibiotic and siRNA/Lipofectamine 2000 complex was added to each well. For the RBL cells, the siRNA/Lipofectamine 2000 complex was formed by adding 3 μl of siRNA duplex (20 μM) and 3 μl of Lipofectamine 2000 to 100 μl Opti-mem without serum or antibiotic according to the manufacturer's protocol. For monocytes, the siRNA/Lipofectamine 2000 complex was formed by adding 3 μl of siRNA duplex (20 μM) and 1 μl of Lipofectamine 2000 to 100 μl Opti-mem without serum or antibiotic. Cells were incubated at 37° C. for 48 hours before examination of kinase protein expression by Western blotting
Lysates were prepared by boiling cells in Laemmli sample buffer (2% SDS, 10% glycerol, 100 mM DTT, and 60 mM Tris (pH 6.8) for 5 minutes. Proteins in lysates were separated by SDS-PAGE (10% polyacrylamide) and transferred to a nitrocellulose membrane in […] (25 mM Tris, 190 mM glycine, and 20% methanol). The nitrocellulose membrane was incubated overnight at 4° C. with 1 μg/ml rabbit anti-murine Syk kinsae polyclonal Ab before incubation with goat anti-rabbit HRP (1.5 h at room temperature). Protein bands on the membrane were visualized with chemiluminescence reagent according to the manufacturer's protocol. After detection of Syk kinase protein, the anti-Syk kinase Ab was removed by incubating the membrane in a stripping buffer containing 100 mM 2-ME, 2% SDS, and 62.5 mM Tris-HCL (pH 6.7) for 30 minutes at 50° C. with occasional agitation. The membrane was then reprobed with anti-actin Ab and bands on the membrane were visualized with chemiluminescence reagent. Protein levels of Syk kinase were quantified by densitometry (Personal Densitometer, Molecular Dynamics).

Syk = assay: Western blot of Syk protein expression in HS-24 cells after siRNA treatment; assay type: cell-based; conditions: 48 hr treatment
Method: (§1) FIGS. 5A and 5B. (FIG. 5A) HS-24 cells, following siRNA treatment, were lysed and equal amounts of total protein in HS-24 cell lysates were resolved by 10% SDS gel electrophoresis, and analyzed by Western blot using monoclonal antibody to Syk or actin. Lane 1—no treatment, lane 2—siRNA-1 (control) 24 h treatment, lane 3—siRNA-1 48 h treatment, lane 4—siRNA-2 24 h treatment, lane 5—siRNA-2 48 h treatment. (FIG. 5B) RNA was isolated and RT-PCR was performed for Syk and β-actin. Lane 1—no treatment, lane 2—SiRNA-1 (control) 48 h treatment, lane 3—siRNA-2 48 h treatment.
HS-24 cells (2×10^5) were pre-treated with 3 μl of siRNA-1 (control)
(§2) or Syk antisense, with Lipofectamine 2000 in a 12-well plate for 24 or 48 hr, and stimulated by 10 ng/ml of TNF overnight. Read-outs: IL-6 in culture supernatant (ELISA) and cell surface expression of ICAM-1 (Flow cytometry). As shown by Western blot analysis ([…]), siRNA-2 caused a decrease in Syk protein expression following 48 hr of treatment.
(§3) More specifically, HS-24 cells were transiently transfected with siRNA-2 or siRNA-1 (control). Cell surface expression of ICAM-1, as well as release of IL-6, were then examined.

Syk mRNA = assay: RT-PCR of Syk mRNA in HS-24 cells after siRNA treatment; assay type: cell-based; conditions: 48 h treatment
Method: as §1, §3

[1] = system: ICAM-1 (CD54) expression in HS-24 cells; assay: Cell surface expression of ICAM-1 in HS-24 cells (flow cytometry); assay type: cell-based; conditions: for TNF-induced ICAM-1 expression: siRNA 48 h, TNF 10 ng/ml overnight
Method: (§4) FIGS. 6A and 6B. HS-24 cells plated on either polylysine coated plates (non stimulated, resting) or fibronectin coated plates (stimulated) were treated with siRNA-2, or siRNA-1 (control), or piceatannol. Cells were treated with 10 ng/ml of TNF during overnight culture. (FIG. 6A) Following siRNA (48 h) or piceatannol (16 h) treatment, cells were removed, immunostained with anti-CD54 (ICAM-1) and analysed by flow cytometry. (FIG. 6B) Cell culture supernatants were analysed for IL-6 release using an IL-6 ELISA kit. *P<0.05, **P<0.005 as compared to untreated cells (e.g., untreated with siRNA) stimulated with TNF. Results are representative of three to five independent experiments.
as §2

[2] = system: IL-6 release by HS-24 cells; assay: IL-6 release of HS-24 cells into culture supernatant (ELISA); assay type: cell-based
Method: as §4, §2

HS-24 cells = assay: Viability of HS-24 cells by trypan blue dye exclusion; assay type: cell-based; conditions: no significant effect on viability

| Molecule | Syk (densitometry quantification of Syk kinase expression) (Syk kinase) | Syk Corr (Syk densitometry units corrected for % actin expression in each lane) (Syk kinase) | % Syk Inhibition (Syk kinase) | Syk protein expression (Syk) | Syk mRNA expression (Syk mRNA) | TNF-induced ICAM-1 expression (summary of FIG. 6A) ([1]; HS-24 cells) | constitutive ICAM-1 expression ([1]; HS-24 cells without TNF stimulation) | TNF-induced ICAM-1 expression ([1]; fibronectin-plated HS-24 cells) | TNF-induced ICAM-1 expression ([1]; poly-L-lysine-plated HS-24 cells) | IL-6 release (summary of FIG. 6B) ([2]; HS-24 cells, TNF-induced) | down-regulation of IL-6 release ([2]; TNF-stimulated HS-24 cells, poly-L-lysine and fibronectin culture, significant in fibronectin-adherent culture (P<0.05)) | viability (trypan blue dye exclusion) (HS-24 cells) |
| --- | --- | --- | --- | --- | --- | --- | --- | --- | --- | --- | --- | --- |
| siRNA-1: Syk kinase siRNA duplex; sense 5′ gaagcccuucaaccggccc UU 3′ (SEQ ID NO: 23), antisense 3′-UU cuucgggaaguuggccggg 5′ (SEQ ID NO: 24) (sense GAAGCCCUUCAACCGGCCCUU; antisense GGGCCGGUUGAAGGGCUUCTT; chemistry not given here) | 953 densitometry units | 1114 densitometry units | 45% | not | not |  |  |  |  |  |  |  |
| siRNA-2: Syk kinase siRNA duplex; sense 5′-ccucaucagggaauaucug UU 3′ (SEQ ID NO: 25), antisense 3′-UU ggaguagucccuuauagac 5′ (SEQ ID NO: 26) (sense CCUCAUCAGGGAAUAUCUGUU; antisense CAGAUAUUCCCUGAUGAGGTT; chemistry not fully specified) | 627 densitometry units | 997 densitometry units | 51% | decrease; also recorded: significantly suppressed | significantly suppressed | down-regulates | not affected | down-regulated | no significant effect | down-regulates | 55–58% |  |
| Oc1cc(O)cc(/C=C/c2ccc(O)c(O)c2)c1 [piceatannol] |  |  |  |  |  |  |  |  |  |  |  | > 96% |
